Where a name gives a salt, the structure may show the parent alone.
Molecular target: T1, HiBiT tagged PARP14 (Homo sapiens, UniProt Q460N5)
T1 construct: engineered to contain a HiBiT tag on both alleles of the PARP14 gene; endogenous in cells; host or cells: Jurkat cells stably transfected with LgBiT (Promega), PARP14 locus edited by CRISPR/Cas9
Assay: HiBiT assay for the degradation of PARP14 (HiBiT tagged PARP14 in LgBiT expressing Jurkat cells, 2 or 24 hours)
Format: cell-based
Settings: Assay B (Example B): HiBiT tagged PARP14 degradation in LgBiT expressing Jurkat cells, read-out: DC50
Procedure, shortened: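 Jurkat cells stably expressing LgBiT with CRISPR knock-in of C-terminal HiBiT on both PARP14 alleles, 5,000 cells/well, treated with compound dose-response at 37 °C for 2 or 24 h. Live Cell Substrate luminescence normalised to 0.1% DMSO wells; DC50 from 4-parameter fit with floating top, bottom, Hill.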

T1 sequence (Q460N5 whole entry): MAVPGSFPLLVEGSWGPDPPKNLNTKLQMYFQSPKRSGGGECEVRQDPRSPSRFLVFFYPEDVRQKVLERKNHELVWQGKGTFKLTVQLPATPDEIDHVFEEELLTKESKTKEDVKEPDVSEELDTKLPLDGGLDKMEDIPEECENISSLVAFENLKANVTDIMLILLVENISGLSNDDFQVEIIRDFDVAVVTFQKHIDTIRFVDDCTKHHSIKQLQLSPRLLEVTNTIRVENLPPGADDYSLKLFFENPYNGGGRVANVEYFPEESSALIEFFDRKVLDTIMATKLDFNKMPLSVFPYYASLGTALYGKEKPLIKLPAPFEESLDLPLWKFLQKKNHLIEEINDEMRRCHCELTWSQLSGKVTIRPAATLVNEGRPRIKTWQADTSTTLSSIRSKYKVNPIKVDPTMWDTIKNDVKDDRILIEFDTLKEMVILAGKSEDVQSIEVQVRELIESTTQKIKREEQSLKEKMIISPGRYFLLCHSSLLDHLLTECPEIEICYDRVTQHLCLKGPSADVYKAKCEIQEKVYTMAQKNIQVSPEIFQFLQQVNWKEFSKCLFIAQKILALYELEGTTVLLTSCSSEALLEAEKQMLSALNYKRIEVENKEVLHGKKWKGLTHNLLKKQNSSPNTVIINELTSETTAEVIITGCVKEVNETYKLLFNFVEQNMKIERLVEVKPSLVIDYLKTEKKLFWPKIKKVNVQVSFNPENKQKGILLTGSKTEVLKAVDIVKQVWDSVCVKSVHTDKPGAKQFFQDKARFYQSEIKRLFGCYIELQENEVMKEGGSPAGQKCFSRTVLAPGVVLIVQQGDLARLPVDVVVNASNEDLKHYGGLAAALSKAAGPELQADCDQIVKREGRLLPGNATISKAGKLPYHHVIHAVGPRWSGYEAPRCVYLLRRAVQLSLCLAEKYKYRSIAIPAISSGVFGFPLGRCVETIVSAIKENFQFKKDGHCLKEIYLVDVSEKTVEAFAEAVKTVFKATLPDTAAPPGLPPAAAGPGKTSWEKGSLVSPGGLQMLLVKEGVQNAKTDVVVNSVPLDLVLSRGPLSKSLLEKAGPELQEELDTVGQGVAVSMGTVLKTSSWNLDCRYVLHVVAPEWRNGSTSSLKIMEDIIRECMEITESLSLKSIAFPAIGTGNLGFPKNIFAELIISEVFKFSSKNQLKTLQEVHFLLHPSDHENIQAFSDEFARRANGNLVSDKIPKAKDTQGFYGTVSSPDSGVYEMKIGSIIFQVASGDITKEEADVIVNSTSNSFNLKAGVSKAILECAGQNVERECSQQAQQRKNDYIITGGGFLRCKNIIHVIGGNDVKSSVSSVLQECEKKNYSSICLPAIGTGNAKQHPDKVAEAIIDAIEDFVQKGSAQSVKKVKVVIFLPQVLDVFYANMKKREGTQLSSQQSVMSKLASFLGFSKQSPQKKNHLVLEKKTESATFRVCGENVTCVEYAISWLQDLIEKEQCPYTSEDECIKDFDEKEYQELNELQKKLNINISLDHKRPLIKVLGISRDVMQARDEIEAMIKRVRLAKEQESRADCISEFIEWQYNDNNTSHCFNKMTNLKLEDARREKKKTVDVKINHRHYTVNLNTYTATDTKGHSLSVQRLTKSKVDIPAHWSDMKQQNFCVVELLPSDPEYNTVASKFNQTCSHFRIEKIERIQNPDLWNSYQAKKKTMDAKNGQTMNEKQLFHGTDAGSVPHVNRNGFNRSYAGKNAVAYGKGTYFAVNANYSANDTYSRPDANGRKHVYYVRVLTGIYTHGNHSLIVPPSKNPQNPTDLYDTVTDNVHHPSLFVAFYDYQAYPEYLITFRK

Structure (SMILES)	DC50
O=C1CCN(c2cncc3c(N4CCN(CCN5CCC(COc6cc(F)c7c(=O)[nH]c(CSC8CCOCC8)nc7c6)CC5)CC4)cccc23)C(=O)N1 [Example 210, 1-(8-(4-(2-(4-(((5-fluoro-4-oxo-2-(((tetrahydro-2H-pyran-4-yl)thio)methyl)-3,4-dihydroquinazolin-7-yl)oxy)methyl)piperidin-1-yl)ethyl)piperazin-1-yl)isoquinolin-4-yl)dihydropyrimidine-2,4(1H,3H)-dione]	< 30 nM
Cn1nc(N2CCC(=O)NC2=O)c2cc(F)c(N3CCN(CCN4CCC(COc5cc(F)c6c(=O)[nH]c(CSC7CCOCC7)nc6c5)CC4)CC3)cc21 [Example 212, 1-(5-fluoro-6-(4-(2-(4-(((5-fluoro-4-oxo-2-(((tetrahydro-2H-pyran-4-yl)thio)methyl)-3,4-dihydroquinazolin-7-yl)oxy)methyl)piperidin-1-yl)ethyl)piperazin-1-yl)-1-methyl-1H-indazol-3-yl)dihydropyrimidine-2,4(1H,3H)-dione]	< 30 nM
O=C1CCC(Nc2ccc(N3CCC4(CCN(CCOc5cc(F)c6c(=O)[nH]c(CSC7CCOCC7)nc6c5)CC4)CC3)c(F)c2)C(=O)N1 (centres unmarked) [Example 215, 3-((3-fluoro-4-(9-(2-((5-fluoro-4-oxo-2-(((tetrahydro-2H-pyran-4-yl)thio)methyl)-3,4-dihydroquinazolin-7-yl)oxy)ethyl)-3,9-diazaspiro[5.5]undecan-3-yl)phenyl)amino)piperidine-2,6-dione]	< 30 nM
O=C1CCC(Nc2ccc(N3CCC(CN4CC(N5CCC(COc6cc(F)c7c(=O)[nH]c(CSC8CCOCC8)nc7c6)CC5)C4)CC3)c(F)c2)C(=O)N1 (centres unmarked) [Example 217, 3-((3-fluoro-4-(4-((3-(4-(((5-fluoro-4-oxo-2-(((tetrahydro-2H-pyran-4-yl)thio)methyl)-3,4-dihydroquinazolin-7-yl)oxy)methyl)piperidin-1-yl)azetidin-1-yl)methyl)piperidin-1-yl)phenyl)amino)piperidine-2,6-dione formate]	< 30 nM
O=C1CCC(Nc2ccc(N3CCC(N4CCC(COc5cc(F)c6c(=O)[nH]c(CC7CC7)nc6c5)CC4)CC3)c(F)c2)C(=O)N1 (centres unmarked) [Example 219, 3-((4-(4-(((2-(cyclopropylmethyl)-5-fluoro-4-oxo-3,4-dihydroquinazolin-7-yl)oxy)methyl)-[1,4′-bipiperidin]-1′-yl)-3-fluorophenyl)amino)piperidine-2,6-dione formate]	< 30 nM
O=C1CCC(Nc2ccc(N3CCC(CN4CCC(C#Cc5cc(F)c6c(=O)[nH]c(CSC7CCOCC7)nc6c5)CC4)CC3)c(F)c2)C(=O)N1 (centres unmarked) [Example 220, 3-((3-fluoro-4-(4-((4-((5-fluoro-4-oxo-2-(((tetrahydro-2H-pyran-4-yl)thio)methyl)-3,4-dihydroquinazolin-7-yl)ethynyl)piperidin-1-yl)methyl)piperidin-1-yl)phenyl)amino)piperidine-2,6-dione formate]	< 30 nM
O=C1CCC(Nc2ccc(N3CCC(N4CC(N5CCC(COc6cc(F)c7c(=O)[nH]c(CSC8CCOCC8)nc7c6)CC5)C4)CC3)cc2F)C(=O)N1 (centres unmarked) [Example 221, 3-((2-fluoro-4-(4-(3-(4-(((5-fluoro-4-oxo-2-(((tetrahydro-2H-pyran-4-yl)thio)methyl)-3,4-dihydroquinazolin-7-yl)oxy)methyl)piperidin-1-yl)azetidin-1-yl)piperidin-1-yl)phenyl)amino)piperidine-2,6-dione formate]	< 30 nM
O=C1CCC(Nc2ccc(N3CCC(N4CCC(COc5cc(F)c6c(=O)[nH]c(CSC7CCOCC7)nc6c5)CC4)CC3)cc2F)C(=O)N1 (centres unmarked) [Example 222, 3-((2-fluoro-4-(4-(((5-fluoro-4-oxo-2-(((tetrahydro-2H-pyran-4-yl)thio)methyl)-3,4-dihydroquinazolin-7-yl)oxy)methyl)-[1,4′-bipiperidin]-1′-yl)phenyl)amino)piperidine-2,6-dione]	< 30 nM
O=C1CCC(Nc2ccc(N3CCC(N4CCC(CCOc5cc(F)c6c(=O)[nH]c(CSC7CCOCC7)nc6c5)CC4)CC3)c(F)c2)C(=O)N1 (centres unmarked) [Example 223, 3-((3-fluoro-4-(4-(2-((5-fluoro-4-oxo-2-(((tetrahydro-2H-pyran-4-yl)thio)methyl)-3,4-dihydroquinazolin-7-yl)oxy)ethyl)-[1,4′-bipiperidin]-1′-yl)phenyl)amino)piperidine-2,6-dione]	< 30 nM
O=C1CCC(Nc2ccc(N3CCN(CCN4CCC(C#Cc5cc(F)c6c(=O)[nH]c(CSC7CCOCC7)nc6c5)CC4)CC3)c(F)c2)C(=O)N1 (centres unmarked) [Example 226, 3-((3-fluoro-4-(4-(2-(4-((5-fluoro-4-oxo-2-(((tetrahydro-2H-pyran-4-yl)thio)methyl)-3,4-dihydroquinazolin-7-yl)ethynyl)piperidin-1-yl)ethyl)piperazin-1-yl)phenyl)amino)piperidine-2,6-dione formate]	< 30 nM

More lines, now with the values ahead:

DC50	Structure (SMILES)
< 30 nM	Cn1nc(N2CCC(=O)NC2=O)c2cc(F)c(C3CCN(CCN4CCC(COc5cc(F)c6c(=O)[nH]c(CSC7CCOCC7)nc6c5)CC4)CC3)cc21 [Example 207, 1-(5-fluoro-6-(1-(2-(4-(((5-fluoro-4-oxo-2-(((tetrahydro-2H-pyran-4-yl)thio)methyl)-3,4-dihydroquinazolin-7-yl)oxy)methyl)piperidin-1-yl)ethyl)piperidin-4-yl)-1-methyl-1H-indazol-3-yl)dihydropyrimidine-2,4(1H,3H)-dione formate]
< 30 nM	O=C1CCN(c2ccc(C3CCN(CCN4CCC(COc5cc(F)c6c(=O)[nH]c(CSC7CCOCC7)nc6c5)CC4)CC3)c(F)c2)C(=O)N1 [Example 208, 1-(3-fluoro-4-(1-(2-(4-(((5-fluoro-4-oxo-2-(((tetrahydro-2H-pyran-4-yl)thio)methyl)-3,4-dihydroquinazolin-7-yl)oxy)methyl)piperidin-1-yl)ethyl)piperidin-4-yl)phenyl)dihydropyrimidine-2,4(1H,3H)-dione]
< 30 nM	O=C1CCN(c2cnc3cc(N4CCN(CCN5CCC(COc6cc(F)c7c(=O)[nH]c(CSC8CCOCC8)nc7c6)CC5)CC4)ccn23)C(=O)N1 [Example 209, 1-(7-(4-(2-(4-(((5-fluoro-4-oxo-2-(((tetrahydro-2H-pyran-4-yl)thio)methyl)-3,4-dihydroquinazolin-7-yl)oxy)methyl)piperidin-1-yl)ethyl)piperazin-1-yl)imidazo[1,2-a]pyridin-3-yl)dihydropyrimidine-2,4(1H,3H)-dione diformate]
< 30 nM	O=C1CCN(c2cnc3cc(C4CCN(CCN5CCC(COc6cc(F)c7c(=O)[nH]c(CSC8CCOCC8)nc7c6)CC5)CC4)ccn23)C(=O)N1 [Example 211, 1-(7-(1-(2-(4-(((5-fluoro-4-oxo-2-(((tetrahydro-2H-pyran-4-yl)thio)methyl)-3,4-dihydroquinazolin-7-yl)oxy)methyl)piperidin-1-yl)ethyl)piperidin-4-yl)imidazo[1,2-a]pyridin-3-yl)dihydropyrimidine-2,4(1H,3H)-dione]
< 30 nM	O=C1CCC(Nc2ccc(N3CCN(CC4CCN(CCOc5cc(F)c6c(=O)[nH]c(CSC7CCOCC7)nc6c5)CC4)CC3)c(F)c2)C(=O)N1 (centres unmarked) [Example 213, 3-((3-fluoro-4-(4-((1-(2-((5-fluoro-4-oxo-2-(((tetrahydro-2H-pyran-4-yl)thio)methyl)-3,4-dihydroquinazolin-7-yl)oxy)ethyl)piperidin-4-yl)methyl)piperazin-1-yl)phenyl)amino)piperidine-2,6-dione]
< 30 nM	O=C1CCC(Nc2ccc(N3CCC(N4CCC(N5CCC(COc6cc(F)c7c(=O)[nH]c(CSC8CCOCC8)nc7c6)CC5=O)CC4)CC3)c(F)c2)C(=O)N1 (centres unmarked) [Example 214, 3-((3-fluoro-4-(4-(((5-fluoro-4-oxo-2-(((tetrahydro-2H-pyran-4-yl)thio)methyl)-3,4-dihydroquinazolin-7-yl)oxy)methyl)-2-oxo-[1,4′:1′,4″-terpiperidin]-1″-yl)phenyl)amino)piperidine-2,6-dione formate]
< 30 nM	O=C1CCC(Nc2ccc(N3CCN(CCN4CCC(COc5cc(F)c6c(=O)[nH]c(CCC7CCOCC7)nc6c5)CC4)CC3)cc2F)C(=O)N1 (centres unmarked) [Example 216, 3-((2-fluoro-4-(4-(2-(4-(((5-fluoro-4-oxo-2-(2-(tetrahydro-2H-pyran-4-yl)ethyl)-3,4-dihydroquinazolin-7-yl)oxy)methyl)piperidin-1-yl)ethyl)piperazin-1-yl)phenyl)amino)piperidine-2,6-dione]
< 30 nM	O=C1CCC(Nc2cc(F)c(N3CCC(N4CC(N5CCC(COc6cc(F)c7c(=O)[nH]c(CSC8CCOCC8)nc7c6)CC5)C4)CC3)cc2F)C(=O)N1 (centres unmarked) [Example 218, 3-((2,5-difluoro-4-(4-(3-(4-(((5-fluoro-4-oxo-2-(((tetrahydro-2H-pyran-4-yl)thio)methyl)-3,4-dihydroquinazolin-7-yl)oxy)methyl)piperidin-1-yl)azetidin-1-yl)piperidin-1-yl)phenyl)amino)piperidine-2,6-dione]
< 30 nM	O=C1CCC(Nc2ccc(N3CCC(N4CCC(CN5CCC(COc6cc(F)c7c(=O)[nH]c(CSC8CCOCC8)nc7c6)CC5)CC4)CC3)c(F)c2)C(=O)N1 (centres unmarked) [Example 224, 3-((3-fluoro-4-(4-((4-(((5-fluoro-4-oxo-2-(((tetrahydro-2H-pyran-4-yl)thio)methyl)-3,4-dihydroquinazolin-7-yl)oxy)methyl)piperidin-1-yl)methyl)-[1,4′-bipiperidin]-1′-yl)phenyl)amino)piperidine-2,6-dione]
< 30 nM	O=C1CCC(Nc2ccc(N3CCC(N4CCC(C(=O)N5CCC(COc6cc(F)c7c(=O)[nH]c(CSC8CCOCC8)nc7c6)CC5)CC4)CC3)c(F)c2)C(=O)N1 (centres unmarked) [Example 225, 3-((3-fluoro-4-(4-(4-(((5-fluoro-4-oxo-2-(((tetrahydro-2H-pyran-4-yl)thio)methyl)-3,4-dihydroquinazolin-7-yl)oxy)methyl)piperidine-1-carbonyl)-[1,4′-bipiperidin]-1′-yl)phenyl)amino)piperidine-2,6-dione]
